Measurements taken from PMC5359624, “A structure- and chemical genomics-based approach for repositioning of drugs against VCP/p97 ATPase” (Scientific Reports, 2017).
pIC50: −log10 of the molar value. “And” between values parts separate entries of the source, which are not always exact repeats. Identical values can stand only once. Residues, ends and D or L forms follow the SMILES beside them. *: point of attachment. Cbz = O=C(OCc1ccccc1)*

Experiments:
E578Q VCP/p97 ATPase = E578Q VCP/p97 ATPase (Homo sapiens, UniProt P55072, E578Q); assay: In vitro ATPase assay, E578Q (D2 Walker B mutant, D1-active); type: biochemical; settings: for pIC50: 200 μM ATP, 8-dose titration
Chain of E578Q VCP/p97 ATPase (P55072 whole entry E578Q): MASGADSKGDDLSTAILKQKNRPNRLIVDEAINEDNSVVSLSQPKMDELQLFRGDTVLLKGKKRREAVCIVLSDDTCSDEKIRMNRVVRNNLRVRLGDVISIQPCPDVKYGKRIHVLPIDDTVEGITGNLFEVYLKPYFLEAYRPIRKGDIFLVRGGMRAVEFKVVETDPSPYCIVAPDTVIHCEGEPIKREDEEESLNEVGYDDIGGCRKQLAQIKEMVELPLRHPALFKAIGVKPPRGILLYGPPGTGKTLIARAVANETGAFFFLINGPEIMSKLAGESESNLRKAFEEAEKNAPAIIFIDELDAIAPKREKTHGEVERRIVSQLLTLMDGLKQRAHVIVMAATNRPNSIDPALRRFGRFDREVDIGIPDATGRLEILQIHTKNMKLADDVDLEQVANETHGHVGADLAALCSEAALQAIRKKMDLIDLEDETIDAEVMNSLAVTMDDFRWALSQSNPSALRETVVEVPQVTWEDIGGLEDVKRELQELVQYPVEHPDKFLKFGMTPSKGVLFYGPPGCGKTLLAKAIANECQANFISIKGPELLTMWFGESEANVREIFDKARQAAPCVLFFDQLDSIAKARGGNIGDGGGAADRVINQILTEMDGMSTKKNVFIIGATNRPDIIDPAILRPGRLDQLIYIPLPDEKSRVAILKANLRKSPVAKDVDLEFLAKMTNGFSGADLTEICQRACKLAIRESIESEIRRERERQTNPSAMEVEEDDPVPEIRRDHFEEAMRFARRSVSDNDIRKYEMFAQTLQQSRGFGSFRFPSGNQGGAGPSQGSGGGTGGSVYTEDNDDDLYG
Source text: (§1) In order to test direct inhibition of VCP/p97 ATPase activity by these compounds, we performed in vitro ATPase assays of the five UPS and VCP/p97 perturbing compounds to evaluate their inhibitory activity against VCP/p97.

tumor growth = settings: 50 mg/kg, mice; cited from earlier work
WT VCP/p97 ATPase = WT VCP/p97 ATPase (Homo sapiens, UniProt P55072); assay: In vitro ATPase assay, WT VCP/p97; type: biochemical; settings: 200 μM ATP, 8-dose titration
Chain of WT VCP/p97 ATPase (P55072 whole entry): as the sequence (P55072 whole entry E578Q) above, with Q578E counted along it
Source text: as §1

NSCLC cells = test system: NSCLC cells; design: method as in PMID 27333030; settings: sub-micromolar concentrations; cited from earlier work
E305Q VCP/p97 ATPase = E305Q VCP/p97 ATPase (Homo sapiens, UniProt P55072, E305Q); assay: In vitro ATPase assay, E305Q (D1 Walker B mutant, D2-active); type: biochemical; settings: for pIC50: 200 μM ATP, 8-dose titration
Chain of E305Q VCP/p97 ATPase (P55072 whole entry E305Q): as the sequence (P55072 whole entry E578Q) above, with E305Q, Q578E counted along it
Source text: as §1

[1] = cited from earlier work
[2] = test system: UbG76V-GFP (p97-dependent substrate); assay: UbG76V-GFP degradation assay (dual-reporter HeLa cell line); type: cell-based; settings: 160 min, HeLa dual-reporter cells
Protocol: (§2) First, the activities of these compounds against VCP/p97 in a cell-based degradation assay[31] were evaluated. For this purpose, we used a dual-reporter system to monitor the ubiquitin-proteasome system (UPS) and VCP/p97 function in mammalian cells. This system comprises an ubiquitin fusion degradation (UFD) reporter Ub^G76V-GFP and the oxygen-dependent degradation domain of HIF1α fused to luciferase (ODD-Luc), a non-ERAD substrate for proteasomal degradation. Measurement of GFP and luciferase activity in response to a treatment allows to assess the effect on p97-dependent and p97-independent proteolysis.
(§3) A dual-reporter stable HeLa cell line was generated to monitor UPS function in mammalian cells. A ubiquitin fusion degradation (UFD) reporter Ub^G76V-GFP and an oxygen-dependent degradation domain of HIF1α fused to luciferase (ODD-Luc). […] Cells were seeded on 384-well plates (3000 cells/well) and grown for 18 h. Cells were treated with modified DMEM (without phenol red, folic acid, riboflavin, and vitamin B12) containing MG132 (4 μM) for 1 h and washed twice with pre-warmed PBS. […] Plates were imaged on the ImageXpress Micro microscope (Molecular Devices) after 160 min. Luciferase activity were measured by adding D-Luciferin (10 μl of 2.5 mg/mL in PBS) into each well containing 38 μl of medium and incubated at room temperature for 10 min. Use Synergy Neo (BioTek) to read Luciferase signal.

[3] = test system: ODD-Luc (p97-independent proteasome substrate); assay: ODD-Luc degradation assay (dual-reporter HeLa cell line); type: cell-based; settings: HeLa dual-reporter cells
Protocol: as §2, §3

VCP = test system: VCP; design: method as in PMID 23892893; settings: read-out: Experimental IC50; cited from earlier work
[4] = design: method as in PMID 23245311; settings: oral administration in mice; cited from earlier work

Row | pIC50 (E578Q VCP/p97 ATPase) | pIC50 (WT VCP/p97 ATPase) | pIC50 (E305Q VCP/p97 ATPase) | pIC50 ([2]; Homo sapiens) | pIC50 ([3]; Homo sapiens) | Compound | also measured
1 | < 4.52 | 4.60 | < 4.52 | – | – | COc1ccc(CCN2CCC(Nc3nc4ccccc4n3Cc3ccc(F)cc3)CC2)cc1 [Astemizole] | tumor growth inhibition (tumor growth): sufficient to inhibit tumor growth; sensitization of NSCLC cells to chemotherapy (NSCLC cells): sensitized NSCLC cells to chemotherapy
2 | 5.10 and 5.09 | 4.92 | 5.10 | – | – | Clc1ccccc1C(c1ccccc1)(c1ccccc1)n1ccnc1 [Clotrimazole] | water solubility [1]: poor
3 | 4.96 | 5.52 | 5.26 | – | – | c1ccc(CNc2nc(NCc3ccccc3)c3ccccc3n2)cc1 [DBeQ] | IC50 increase against the D2 mutant relative to wild-type VCP/p97 (E578Q VCP/p97 ATPase; E578Q vs WT): 3.7 fold; IC50 increase against the D1 mutant relative to wild-type VCP/p97 (E305Q VCP/p97 ATPase; E305Q vs WT): 1.8 fold
4 | – | – | – | < 4.40 | < 4.40 | CC#CCC(C)[C@H](O)/C=C/[C@@H]1[C@H]2C/C(=C/CCCC(=O)O)C[C@H]2C[C@H]1O (stereo partly drawn) [Iloprost] | –
5 | – | – | – | < 4.40 | < 4.40 | O=C(Nc1ccc([N+](=O)[O-])cc1Cl)c1cc(Cl)ccc1O [Niclosamide] | –
6 | < 4.52 | < 4.52 | < 4.52 | 4.97 | 4.68 | CC(C)(C)NC(=O)[C@@H]1C[C@@H]2CCCC[C@@H]2CN1C[C@@H](O)[C@H](Cc1ccccc1)NC(=O)[C@H](CC(N)=O)NC(=O)c1ccc2ccccc2n1 [Saquinavir] | –

The remaining lines, values behind:

Row | Compound | pIC50 (E578Q VCP/p97 ATPase) | pIC50 (WT VCP/p97 ATPase) | pIC50 (E305Q VCP/p97 ATPase) | pIC50 ([2]; Homo sapiens) | pIC50 ([3]; Homo sapiens) | also measured
7 | CC(C)(C)c1ccc(C(=O)CCCN2CCC(OC(c3ccccc3)c3ccccc3)CC2)cc1 [Ebastine] | – | – | – | – | – | sensitization of NSCLC cells to chemotherapy (NSCLC cells): sensitized NSCLC cells to chemotherapy
8 | CC(C)C[C@@H](C=O)NC(=O)[C@H](CC(C)C)NC(=O)[C@H](CC(C)C)NC(=O)OCc1ccccc1 [MG132] (Cbz-Leu-Leu-Leu-aldehyde) | – | – | – | 5.92 | 5.36 | –
9 | Cc1cc(OCc2nnc(SC3CCCC3)n2-c2cccnc2)ccc1-c1ccc(S(C)(=O)=O)cc1 [NMS-873] | – | – | – | – | < 4.40 | pIC50 (VCP): 7.52; bioavailability [4]: modest; systemic exposure [4]: modest; pIC50 [2]: 5.85
10 | Ivermectin | < 4.52 | < 4.52 | < 4.52 | – | – | pIC50 [2]: 5.01; IC50 WT VCP/p97 ATPase activity (WT VCP/p97 ATPase): did not show activity; pIC50 [3]: < 4.40
11 | NMS-249 | – | – | – | – | – | pIC50 (VCP): 6.54
12 | NMS-862 | – | – | – | – | – | pIC50 (VCP): 5.58
